Here are results for 27 compounds from patent US8691818B2, “Cyclic triazo and diazo sodium channel blockers” (University Of Greenwich, priority 2008, dated 2014).

Structures are written as SMILES. Counter-ions that a name gives are not always drawn.

As usually defined, the IC50 is the midpoint of a concentration-inhibition curve. The inhibition is the change of the read-out against control, counted positive when it falls. The melting point is the temperature of the solid-liquid transition.

The subject of data set [1] is sodium channel. Nature of the data set: [14C]guanidine flux: veratrine-evoked uptake of [14C]guanidine into rat forebrain synaptosomes (primary sodium channel assay). To be noted: 30° for 2½ min. It counts as biochemical. The method, boiled down:
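Synaptosomal fraction from male Wistar rat forebrain (without cerebellum/medulla), 20-25 mg wet weight/ml. Veratrine-evoked [14C]guanidine uptake at 30° for 2½ min across a compound concentration range; IC50 from concentration-effect curves, mean±sem.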

The subject of data set [2] is 0.4 mm slices of rat hippocampus. The data set can be described thus: tissue or blood. It counts as cell-based. To be noted: for Emax at 30 µM: Rattus norvegicus, read-out: % protection (v 1 μM TTX) (mean ± sem) (no. of expt's).
Data set [3] concerns the target hERG (Homo sapiens, UniProt Q12809). Nature of the data set: hERG: inhibition of binding of [3H]astemizole to HEK-293 cells expressing human recombinant hERG. Conditions: for inhibition at 10 µM: human, probe [3H]astemizole. For orientation: Block of hERG is tested as a sign of cardiac risk.
For data set [4], the system named is L-Type Calcium Channels. Nature of the data set: L-type calcium channels: inhibition of binding of [3H]nitrendipine to rat cerebral cortex membranes. Conditions: for L-type Ca2+ % inhibition @ 10 μM: [3H]nitrendipine binding; for IC50: read-out: L-type Ca2+ IC50 (μM) (extrapolated from 10 μM inh'n), extrapolated assuming binding slope 1.0.
Data set [5] has as its target T1, DiHydroFolate Reductase (DHFR) (Rattus norvegicus, UniProt Q920D2).
T1 construct: from tissue; host or cells: rat liver homogenate supernatant
T1 sequence (Q920D2 1-187): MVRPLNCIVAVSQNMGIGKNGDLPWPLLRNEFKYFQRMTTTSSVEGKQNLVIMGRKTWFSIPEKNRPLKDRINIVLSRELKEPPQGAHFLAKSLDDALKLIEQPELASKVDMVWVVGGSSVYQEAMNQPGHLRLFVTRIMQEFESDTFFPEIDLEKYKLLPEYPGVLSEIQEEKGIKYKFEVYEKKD
The data set can be described thus: Inhibition of binding of [3H]methotrexate to rat liver homogenate supernatant. To be noted: 125 μM; read-out: [3H]mtx binding (% inhibition @ 125 μM). The procedure, abridged: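 Displacement of [3H]methotrexate binding to rat liver homogenate supernatant, prepared at 4 °C in pH 6.0 phosphate buffer with 15 mM dithiothreitol. Values are mean±sem over the number of experiments shown.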

For data set [6], the system named is Sodium Channel, Site 2. It counts as binding, Wistar Rat. To be noted: for IC50: read-out: [3H]BTX-B binding Extrapolated IC50.
The mark [7] stands for this setting: 30 μM, iodoacetate 400 μM insult, slice ATP.

hERG, sequence (Q12809 whole entry): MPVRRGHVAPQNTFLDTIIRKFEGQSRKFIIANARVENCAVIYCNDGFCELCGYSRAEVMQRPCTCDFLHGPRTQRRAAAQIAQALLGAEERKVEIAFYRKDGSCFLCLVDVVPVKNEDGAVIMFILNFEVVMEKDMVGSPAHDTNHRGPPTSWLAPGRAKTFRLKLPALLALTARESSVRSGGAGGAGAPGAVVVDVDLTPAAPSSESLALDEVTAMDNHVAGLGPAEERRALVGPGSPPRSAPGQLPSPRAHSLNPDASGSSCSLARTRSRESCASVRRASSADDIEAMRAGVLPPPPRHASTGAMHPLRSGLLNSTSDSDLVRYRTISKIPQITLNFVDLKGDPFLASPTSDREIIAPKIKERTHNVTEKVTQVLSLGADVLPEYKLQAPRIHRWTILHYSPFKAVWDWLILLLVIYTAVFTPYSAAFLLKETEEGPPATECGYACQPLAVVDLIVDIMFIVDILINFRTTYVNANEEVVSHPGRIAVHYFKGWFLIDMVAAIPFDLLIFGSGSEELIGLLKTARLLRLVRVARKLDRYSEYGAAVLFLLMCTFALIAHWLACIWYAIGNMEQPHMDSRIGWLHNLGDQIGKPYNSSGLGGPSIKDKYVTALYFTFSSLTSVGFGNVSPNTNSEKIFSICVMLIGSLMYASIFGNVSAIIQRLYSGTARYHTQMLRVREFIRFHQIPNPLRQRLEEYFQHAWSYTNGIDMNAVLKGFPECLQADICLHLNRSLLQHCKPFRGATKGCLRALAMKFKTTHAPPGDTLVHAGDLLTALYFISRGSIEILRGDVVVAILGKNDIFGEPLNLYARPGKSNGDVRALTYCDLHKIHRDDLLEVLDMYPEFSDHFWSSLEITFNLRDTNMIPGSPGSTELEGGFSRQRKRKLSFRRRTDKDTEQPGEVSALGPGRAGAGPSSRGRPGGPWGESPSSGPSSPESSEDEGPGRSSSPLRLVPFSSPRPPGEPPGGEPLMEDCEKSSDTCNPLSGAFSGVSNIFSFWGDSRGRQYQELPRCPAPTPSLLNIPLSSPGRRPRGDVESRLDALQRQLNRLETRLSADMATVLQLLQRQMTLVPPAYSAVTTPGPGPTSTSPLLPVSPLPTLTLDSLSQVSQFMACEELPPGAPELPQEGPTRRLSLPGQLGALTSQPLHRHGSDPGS

With `Nc1ncc(-c2cc(Cl)cc(Cl)c2Cl)c(N)n1` [CEN-47, 2,4-Diamino-5-(2,3,5-trichlorophenyl)pyrimidine, reference compound], the IC50 in data set [1] was found to be 13.2 µM; in data set [3], 35 µM. For the same compound, the Emax at 30 µM in data set [2] (setting [7]) is 98%. In data set [3], the inhibition at 10 µM worked out at 22%.
`CCc1nc(N)nc(N)c1-c1ccc(Cl)cc1` [CEN-48, 2,4-Diamino-5-(4-chlorophenyl)-6-ethyl-pyrimidine, reference compound] yielded a concentration for half-maximal inhibition (IC50) in data set [1] of 5.8 µM. Also, in data set [4], the “L-type Ca2+ % inhibition @ 10 μM” value is −1% and the IC50 was greater than 190 µM. Further, in data set [3], the IC50 was found to be 46 µM and the inhibition at 10 µM was determined as 18%.
Take `N=c1nc(N)c(-c2cc(Cl)cc(Cl)c2Cl)nn1CC(F)F` [CEN-85, 5(3)-Amino-6-(2,3,5-trichlorophenyl)-2,3(2,5)-dihydro-3(5)-imino-2-(2,2-difluoroethyl)-1,2,4-triazine]: the melting point is 168 to 170 °C (dec.). Further, the IC50 in data set [1] came to 3.6 µM. For the same compound, the inhibition at 125 µM in data set [5] is -5%. Besides, in data set [4], the “L-type Ca2+ % inhibition @ 10 μM” value is recorded as −15% and the IC50 is greater than 190 µM. For the same compound, in data set [3], the half-inhibitory concentration (IC50) came out at 16 µM and the inhibition at 10 µM stood at 39%.
Regarding `Nc1cnc(-c2cccc(Cl)c2Cl)c(N)n1` [CEN-87, 2,6-Diamino-3-(2,3-dichlorophenyl)pyrazine], the melting point is 150 to 153 °C. Moreover, in data set [1], the IC50 came out at 288 µM. For the same compound, in data set [5], the inhibition at 125 µM was -5%. Further, in data set [4], the “L-type Ca2+ % inhibition @ 10 μM” value worked out at 7% and the IC50 was 133 µM. In data set [3], the IC50 is greater than 200 µM and the inhibition at 10 µM worked out at 3%.
Turning to `Nc1nnc(C(c2ccccc2)c2ccccc2)c(N)n1` [CEN-130, 3,5-Diamino-6-(diphenylmethy)-1,2,4-triazine], the IC50 in data set [1] is 20.4 µM; in data set [3], greater than 200 µM. For the same compound, the inhibition at 125 µM in data set [5] stood at 2%. For the same compound, in data set [2] (setting [7]), the Emax at 30 µM came out at 39%. Moreover, the inhibition at 10 µM in data set [3] is -2%.
As to `Nc1nnc(-c2cc(OCC(F)(F)F)ccc2OCC(F)(F)F)c(N)n1` [CEN-140, 3,5-Diamino-6-[2,5-bis(2,2,2-trifluoroethoxy)phenyl]-1,2,4-triazine], in data set [1], the IC50 came out at 229 µM. In addition, the inhibition at 125 µM in data set [5] came out at 3%. Besides, in data set [2] (setting [7]), the Emax at 30 µM is -11%.
For `Nc1nnc(C2(c3ccc(Cl)cc3)CCC2)c(N)n1` [CEN-152, 3,5-Diamino-6-[1-(4-chlorophenyl)-1-cyclobuty]-1,2,4-triazine] the same measures were 479 µM, 1% and -10%.
For the compound `Nc1nnc(-c2ccccc2OCc2ccccc2)c(N)n1` [CEN-160, 3,5-Diamino-6-(2-Benzyloxyphenyl)-1,2,4-triazine], in data set [1], it took 295 µM to reach half-maximal inhibition (IC50). Further, the inhibition at 125 µM in data set [5] was -11%. Further, the Emax at 30 µM in data set [2] (setting [7]) is 0%. For the same compound, in data set [3], the half-inhibitory concentration (IC50) was greater than 200 µM and the inhibition at 10 µM amounted to 0%.
`Nc1nnc(-c2cc(Cl)ccc2C(F)(F)F)c(N)n1` [CEN-200, 3,5-Diamino-6-(5-chloro-2-trifluoromethylphenyl)-1,2,4-triazine] returned a melting point of 242 to 243 °C. Also, in data set [6], the “[3H]BTX-B binding % inhibition (@ 10 μM)” value was found to be 14% and the IC50 is 61 µM.
Regarding `CC(C)C(c1ccccc1)c1nnc(N)nc1N` (stereo not drawn) [CEN-201, 3,5-Diamino-6-(1-isopropyl-1-phenylmethy)-1,2,4-triazine], in data set [6], the “[3H]BTX-B binding % inhibition (@ 10 μM)” value amounted to 3% and the IC50 was greater than 200 µM.
The matching figures for `Cn1nc(-c2cc(C(F)(F)F)cc(Cl)c2F)c(N)nc1=N` [CEN-202, 5(3)-Amino-6-(3-chloro-2-fluoro-5-trifluoromethyphenyl)-2,3(2,5)-dihydro-3(5)-imino-2-methyl-1,2,4-triazine mesylate]: 90% and 1 µM.
As to `CCn1nc(-c2cc(C(F)(F)F)cc(Cl)c2F)c(N)nc1=N` [CEN-203, 5(3)-Amino-6-(3-chloro-2-fluoro-5-trifluoromethyphenyl)-2,3(2,5)-dihydro-3(5)-imino-2-ethyl-1,2,4-triazine mesylate], in data set [6], the “[3H]BTX-B binding % inhibition (@ 10 μM)” value worked out at 102% and the IC50 was less than 0.5 µM.
`Cn1nc(-c2cc(F)c(F)cc2Cl)c(N)nc1=N` [CEN-204, 5(3)-Amino-6-(2-chloro-4,5-difluoro-5-phenyl)-2,3(2,5)-dihydro-3(5)-imino-2-methyl-1,2,4-triazine mesylate]: in data set [6], the “[3H]BTX-B binding % inhibition (@ 10 μM)” value was determined as 52% and the IC50 was 9 µM.
As for `CCn1nc(-c2cc(F)c(F)cc2Cl)c(N)nc1=N.CS(=O)(=O)O` [CEN-205, 5(3)-Amino-6-(2-chloro-4,5-difluoro-5-phenyl)-2,3(2,5)-dihydro-3(5)-imino-2-ethyl-1,2,4-triazine mesylate], in data set [6], the “[3H]BTX-B binding % inhibition (@ 10 μM)” value was determined as 79% and the IC50 was 3 µM.
In the case of `Nc1nnc(-c2ccc(F)c(F)c2F)c(N)n1` [CEN-206, 3,5-Diamino-6-(2,3,4-trifluorophenyl)-1,2,4-triazine], the melting point was 242 to 243 °C. In data set [6], the “[3H]BTX-B binding % inhibition (@ 10 μM)” value was determined as 24% and the IC50 is 32 µM.
The matching figures for `Nc1nnc(-c2cc(F)c(F)cc2Cl)c(N)n1` [CEN-207, 3,5-Diamino-6-(2-chloro-4,5-difluorophenyl)-1,2,4-triazine]: 240 to 242 °C, 30% and 23 µM.
`Nc1nnc(-c2cc(F)c(F)c(F)c2F)c(N)n1` [CEN-208, 3,5-Diamino-6-(2,3,4,5-tetrafluorophenyl)-1,2,4-triazine] showed a melting point of 233 to 235 °C. In data set [6], the “[3H]BTX-B binding % inhibition (@ 10 μM)” value is given as 31% and the IC50 was 22 µM.
Turning to `Cc1ccc(S(=O)(=O)O)cc1.Nc1nnc(-c2c(C(F)(F)F)ccc(Cl)c2Cl)c(N)n1` [CEN-209, 3,5-Diamino-6-(2,3-dichloro-6-trifluoromethylphenyl)-1,2,4-triazine tosylate], in data set [6], the “[3H]BTX-B binding % inhibition (@ 10 μM)” value is 36% and the IC50 was 18 µM.
The matching figures for `N=c1nc(N)c(-c2cc(C(F)(F)F)cc(Cl)c2F)nn1CC(F)(F)C(F)F.O=S(=O)(O)C(F)(F)F` [CEN-210, 5(3)-Amino-6-(3-chloro-2-fluoro-5-trifluoromethyphenyl)-2,3(2,5)-dihydro-3(5)-imino-2-(2,2,3,3-tetrafluoropropyl)-1,2,4-triazine trifluoromethanesulphonate]: 43% and 13 µM.
For `N=c1nc(N)c(-c2cc(C(F)(F)F)cc(Cl)c2F)nn1CC(F)(F)C(F)(F)F.O=S(=O)(O)C(F)(F)F` [CEN-211, 5(3)-Amino-6-(3-chloro-2-fluoro-5-trifluoromethyphenyl)-2,3(2,5)-dihydro-3(5)-imino-2-(2,2,3,3,3-pentafluoropropyl)-1,2,4-triazine trifluoromethanesulphonate] the same measures were 106% and less than 0.5 µM.
The matching figures for `Cc1ccc(S(=O)(=O)O)cc1.Nc1nnc(-c2c(F)c(F)c(F)c(F)c2F)c(N)n1` [CEN-212, 3,5-Diamino-6-(2,3,4,5,6-pentafluorophenyl)-1,2,4-triazine tosylate]: 0% and greater than 200 µM.
As to `Nc1nnc(C(c2ccc(Cl)cc2)c2ccc(Cl)cc2)c(N)n1` [CEN-213, 3,5-Diamino-6-[1,1 bis-(4-chlorophenyl)methyl]-1,2,4-triazine], in data set [6], the “[3H]BTX-B binding % inhibition (@ 10 μM)” value is −2% and the IC50 is greater than 200 µM.
For `Cc1ccc(S(=O)(=O)O)cc1.Nc1nnc(-c2c(Cl)ccc(Cl)c2Cl)c(N)n1` [CEN-214, 3,5-Diamino-6-(2,3,6-trichlorophenyl)-1,2,4-triazine tosylate] the same measures were 10% and 90 µM.
The matching figures for `CC(C)(Oc1ccc(Cl)cc1)c1nnc(N)nc1N` [CEN-215, 3,5-Diamino-6-{1-(4-chlorophenoxy)-1-methyl}ethyl-1,2,4-triazine tosylate]: 22% and 35 µM.
Turning to `O=C1NC(=O)C(c2ccccc2)(c2ccccc2)N1` [DPH, reference compound], in data set [2] (setting [7]), the “% protection (v 1 μM TTX) (mean ± sem) (no. of expt's)” value was 48%.
Consider `CN1CCN(c2ncc(-c3cc(Cl)cc(Cl)c3Cl)c(N)n2)CC1` [Sipatrigine, reference compound], for which, in data set [2] (setting [7]), the Emax at 30 µM was 58%.
For the compound `NC1=N[C@H](O)[C@H]2[C@H]3O[C@]4(O)O[C@@H]([C@@H](O)[C@@]2(N1)[C@@H]4O)[C@]3(O)CO` [TTX, tetrodotoxin, reference compound], in data set [2], the “% protection (v 1 μM TTX)” value was 100%.
